# From US10221163B2 (priority 2015, dated 2019)
# Where two headings read alike, the source gives them in different places.
# How the values were obtained:
# [1] = target: VIM-1 (Pseudomonas aeruginosa (strain ATCC 15692 / DSM 22644 / CIP 104116 / JCM 14847 / LMG 12228 / 1C / PRS 101 / PAO1), UniProt A0A0F7KYQ8); experiment: biochemical; settings: CCF2-FA substrate, 30 pM enzyme, 2 hours at 25° C.
# Procedure, shortened: (§1)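 Inhibitor was mixed with the metallo-β-lactamase and CCF2-FA. After 2 hours at 25° C, fluorescence of the coumarin–fluorescein cephalosporin substrate was read. IC50 was calculated with a 4-parameter fit.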
# [2] = target: NDM-1 (Klebsiella pneumoniae, UniProt C7C422); experiment: biochemical; type: biochemical; settings: fluorescence assay, CCF2-FA substrate, 1 pM enzyme, 2 hours at 25° C.; read-out: NDM-1 IC50
# Chain of NDM-1 (C7C422 whole entry, looked up, species assumed): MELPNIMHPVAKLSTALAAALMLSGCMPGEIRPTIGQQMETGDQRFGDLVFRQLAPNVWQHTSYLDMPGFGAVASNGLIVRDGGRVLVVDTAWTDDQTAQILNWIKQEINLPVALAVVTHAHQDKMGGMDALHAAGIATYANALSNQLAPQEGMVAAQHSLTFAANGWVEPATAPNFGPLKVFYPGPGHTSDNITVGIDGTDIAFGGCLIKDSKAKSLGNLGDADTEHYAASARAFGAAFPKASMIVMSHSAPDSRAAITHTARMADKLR
# Procedure, shortened: as §1
# [3] = target: IMP-1 (Serratia marcescens, UniProt P52699); experiment: biochemical; type: biochemical; settings: CCF2-FA substrate, 2 pM enzyme, 2 hours at 25° C.
# Chain of IMP-1 (P52699 whole entry, looked up, species assumed): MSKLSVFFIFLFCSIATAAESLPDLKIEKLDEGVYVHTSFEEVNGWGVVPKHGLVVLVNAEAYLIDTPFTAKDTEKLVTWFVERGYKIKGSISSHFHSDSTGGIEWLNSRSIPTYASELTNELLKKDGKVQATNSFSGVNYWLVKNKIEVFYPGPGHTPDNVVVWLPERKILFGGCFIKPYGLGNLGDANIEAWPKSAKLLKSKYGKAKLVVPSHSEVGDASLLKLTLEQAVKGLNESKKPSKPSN
# Procedure, shortened: as §1
# [4] = system: Pseudomonas aeruginosa efflux+ (MB9798), IMP-1; type: cell-based; parameters: Concentration of metallo-β-lactamase inhibitor which restores susceptibility of efflux + (MB9798) strain to imipenem: unit not given here; settings: C, D serine β-lactamase inhibitor closely related to relebactam; for Concentration of metallo-β-lactamase inhibitor which restores susceptibility of efflux + (MB9798) strain to imipenem: imipenem at 2 μg/mL, in the presence of a class A; for P. aeruginosa expressing IMP-1, efflux + (MB9798) MITC95: concentration restoring susceptibility to imipenem at 2 μg/mL in the presence of a class A
# Procedure, shortened: (§2)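 Microbroth MIC tests in PAO1-background strains with fixed imipenem and/or ceftazidime, usually at the CLSI breakpoint, plus fixed class A/C β-lactamase inhibitor against AmpC. MBL inhibitor titrated; concentration restoring susceptibility recorded and compared as fold difference between efflux+ MB9798 and efflux− MB9799.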
# [5] = system: Escherichia coli expressing NDM-1 (CLB30005, CLB30016); type: cell-based; settings: with imipenem 1 μg/ml; for Escherichia coli MITC95: NDM-1 strain, 95% inhibition of growth; for Escherichia coli expressing NDM-1 (CLB30016) MITC95: 95% inhibition of bacterial growth
# Procedure, shortened: (§3)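 Imipenem 1 μg/ml + inhibitor; MBL-expressing clinical strains in 1.1×CAMHB, inoculum from saline suspension diluted 1:100; 35° C, 22–24 h; absorbance read-out.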
# [6] = system: Serratia marcescens expressing IMP-1 (CL5741); type: cell-based; settings: for Serratia marcescens MITC95: IMP-1 strain CL5741, with imipenem 1 μg/ml, 95% inhibition of growth; for Serratia marcescens expressing IMP-1 (CL5741) MITC95: with imipenem 1 μg/ml, 95% inhibition of bacterial growth
# Procedure, shortened: as §3
# [7] = system: Klebsiella pneumoniae expressing VIM-1 (IHMA599644); type: cell-based; settings: for Klebsiella pneumoniae MITC95: VIM-1 strain IHMA599644, with imipenem 1 μg/ml, 95% inhibition of growth; for Klebsiella pneumoniae expressing VIM-1 (IHMA599644) MITC95: with imipenem 1 μg/ml, 95% inhibition of bacterial growth
# Procedure, shortened: as §3
# [8] = system: Pseudomonas aeruginosa efflux− (MB9799), IMP-1; type: cell-based; settings: C, D serine β-lactamase inhibitor closely related to relebactam; for Concentration of metallo-β-lactamase inhibitor which restores susceptibility of efflux − (MB9799) strain to imipenem: imipenem at 2 μg/mL, in the presence of a class A; for P. aeruginosa expressing IMP-1, efflux − (MB9799) MITC95: concentration restoring susceptibility to imipenem at 2 μg/mL in the presence of a class A
# Procedure, shortened: as §2
# [9] = system: Pseudomonas aeruginosa MB9798 vs MB9799
# Procedure, shortened: as §2
# [10] = fluorescence assay, read-out: VIM-1 IC50
# [11] = fluorescence assay, read-out: IMP-1 IC50
# [12] = fold difference between efflux+ (MB9798) and efflux− (MB9799) strains, imipenem at 2 μg/mL
# [13] = ratio MITC95 PA_9798/MITC95 PA_9799
Compound,"IC50 [1, 10]",IC50 [2],"IC50 [3, 11]",Concentration of metallo-β-lactamase inhibitor which restores susceptibility of efflux + (MB9798) strain to imipenem [4],Escherichia coli MITC95 [5],Serratia marcescens MITC95 [6],Klebsiella pneumoniae MITC95 [7],Concentration of metallo-β-lactamase inhibitor which restores susceptibility of efflux − (MB9799) strain to imipenem [8],"Efflux ratio [9, 12]","P. aeruginosa expressing IMP-1, efflux + (MB9798) MITC95 [4]",Escherichia coli expressing NDM-1 (CLB30016) MITC95 [5],Serratia marcescens expressing IMP-1 (CL5741) MITC95 [6],Klebsiella pneumoniae expressing VIM-1 (IHMA599644) MITC95 [7],"P. aeruginosa expressing IMP-1, efflux − (MB9799) MITC95 [8]","Efflux ratio [9, 13]","IC50 ([1]; VIM-1 IC50, fluorescence assay)","IC50 ([3]; IMP-1 IC50, fluorescence assay)"
"NCCNC(=O)c1cc(-c2ccc(S(=O)(=O)NCCN)c(S(N)(=O)=O)c2-c2nn[nH]n2)ccc1N [Example 451, 4-Amino-N-(2-aminoethyl)-4′-(N-(2-aminoethyl)sulfamoyl)-3′-sulfamoyl-2′-(2H-tetrazol-5-yl)-[1,1′-biphenyl]-3-carboxamide]",0.557 nM,1.7 nM,4.02 nM,1.563,0.7813 µM,0.7813 µM,0.7813 µM,0.7813,2.00,–,–,–,–,–,–,–,–
"CC(C)(N)CNS(=O)(=O)c1ccc(-c2cccc3sc(N)nc23)c(-c2nnn[nH]2)c1S(N)(=O)=O [Example 87, N^1-(2-amino-2-methylpropyl)-4-(2-aminobenzo[d]thiazol-4-yl)-3-(1H-tetrazol-5-yl)benzene-1,2-disulfonamide]",0.197 nM,0.0367 nM,0.261 nM,–,–,–,–,–,–,0.7813 µM,3.125 µM,3.125 µM,6.25 µM,1.563 µM,0.50,–,–
"Nc1ccc(-c2ccc(S(=O)(=O)NC3CNC3)c(S(N)(=O)=O)c2-c2nn[nH]n2)cn1 [Example 493, 4-(6-aminopyridin-3-yl)-N1-(azetidin-3-yl)-3-(2H-tetrazol-5-yl)benzene-1,2-disulfonamide]",0.179 nM,0.189 nM,0.403 nM,0.3906,0.3906 µM,0.3906 µM,1.563 µM,0.7813,0.50,–,–,–,–,–,–,–,–
"Cn1c(N)nc2c(-c3ccc(S(=O)(=O)N[C@H]4CCNC4)c(S(N)(=O)=O)c3-c3nn[nH]n3)cccc21 [Example 163, 4-(2-amino-1-methyl-1H-benzo[d]imidazol-4-yl)-N^1-((S)-pyrrolidin-3-yl)-3-(2H-tetrazol-5-yl)benzene-1,2-disulfonamide]",0.118 nM,0.0605 nM,0.45 nM,–,–,–,–,–,–,0.7813 µM,0.3906 µM,0.7813 µM,0.7813 µM,0.7813 µM,1.00,–,–
"NCCNS(=O)(=O)c1ccc(-c2cccc3[nH]c([C@@H]4C[C@@H](O)CN4)nc23)c(-c2nn[nH]n2)c1S(N)(=O)=O [Example 444, N1-(2-aminoethyl)-4-(2-((2S,4R)-4-hydroxypyrrolidin-2-yl)-1H-benzo[d]imidazol-4-yl)-3-(2H-tetrazol-5-yl)benzene-1,2-disulfonamide]",–,0.236 nM,1.59 nM,1.563,1.563 µM,3.125 µM,3.125 µM,1.563,1.00,–,–,–,–,–,–,0.235 nM,–
"NC1CCC(c2ccc(S(N)(=O)=O)c(S(N)(=O)=O)c2-c2nnn[nH]2)CC1 (stereo not drawn) [Example 165, 4-(4-aminocyclohexyl)-3-(1H-tetrazol-5-yl)benzene-1,2-disulfonamide]",–,17.7 nM,24.4 nM,–,–,–,–,–,–,6.25 µM,0.3906 µM,1.563 µM,3.125 µM,1.563 µM,4.00,1.17 nM,–
"NC[C@H](N)CNS(=O)(=O)c1ccc(-c2cccc3ccc(N)nc23)c(-c2nn[nH]n2)c1S(N)(=O)=O [Example 371, (S)-4-(2-aminoquinolin-8-yl)-N1-(2,3-diaminopropyl)-3-(2H-tetrazol-5-yl)benzene-1,2-disulfonamide]",–,0.0807 nM,0.289 nM,–,0.7813 µM,3.125 µM,3.125 µM,–,–,1.563 µM,–,–,–,1.563 µM,1.00,0.188 nM,–
"Nc1ccc(-c2ccc(S(=O)(=O)NC[C@H](N)CO)c(S(N)(=O)=O)c2-c2nn[nH]n2)cn1 [Example 297, (S)—N^1-(2-amino-3-hydroxypropyl)-4-(6-aminopyridin-3-yl)-3-(2H -tetrazol-5-yl) benzene-1,2-disulfonamide]",0.423 nM,0.331 nM,0.569 nM,–,0.3906 µM,0.7813 µM,1.563 µM,–,–,0.7813 µM,–,–,–,0.7813 µM,1.00,–,–
NCCNS(=O)(=O)c1ccc(-c2cccc3[nH]nnc23)c(-c2nn[nH]n2)c1S(N)(=O)=O [Example 236],0.13 nM,0.0647 nM,0.544 nM,–,–,–,–,–,–,0.7813 µM,3.125 µM,0.7813 µM,1.563 µM,0.7813 µM,1.00,–,–
"CNS(=O)(=O)c1ccc(-c2cccc3cn[nH]c23)c(-c2nn[nH]n2)c1S(N)(=O)=O [Example 7, 4-(1H-indazol-7-yl)-N1-methyl-3-(2H-tetrazol-5-yl)benzene-1,2-disulfonamide]",0.108 nM,0.101 nM,–,–,–,–,–,–,–,25 µM,6.25 µM,3.125 µM,6.25 µM,1.563 µM,15.99,–,0.214 nM
"CS(=O)(=O)Nc1nc2c(-c3ccc(S(=O)(=O)N4CCNCC4)c(S(N)(=O)=O)c3-c3nn[nH]n3)cccc2s1 [Example 156, 3-(2-(Methylsulfonamido)benzo[d]thiazol-4-yl)-6-(piperazin-1-ylsulfonyl)-2-(2H-tetrazol-5-yl)benzenesulfonamide]",1.74 nM,0.29 nM,0.898 nM,–,–,–,–,–,–,12.5 µM,6.25 µM,12.5 µM,25 µM,6.25 µM,2.00,–,–
